Measured values: PMC9929129, “Towards Translation of PqsR Inverse Agonists: From In Vitro Efficacy Optimization to In Vivo Proof‐of‐Principle” (Advanced Science, 2023)
pIC50: −log10 of the molar value.

Legend:
[1] = SafetyScreen44 (Eurofins), whole panel; conditions: at 10 × 10^−6 M
Procedure: 1.4 Safety Pharmacology of Compound 24
1.4.1 Cerep panel (Eurofins)
Compound 24 was further profiled for its off-target interactions against a panel of 44 targets. The screening was done by Eurofins Pharma Discovery within the SafetyScreen44 Panel (Cerep, ITEM P270). In all assays binding/functional inhibition was determined at 10 µM.
Table S6. List of binding assays within the CEREP44 off-target panel and binding data for compound […]
Ca2+ channel (L, dihydropyridine site) (antagonist radioligand) 75.3
Norepinephrine transporter (h) (antagonist radioligand) 74.7
Potassium Channel hERG (human) [3H] Dofetilide 73.1 […]
5-HT transporter (h) (antagonist radioligand) 49.8 […]
MAO-A (antagonist radioligand) 24.9 kappa (h) (KOP) (agonist radioligand) 23.6 dopamine transporter (h) (antagonist radioligand) 22.7 […]
KV channel (antagonist radioligand) 14.2 […]
5-HT1A (h) (agonist radioligand) 11.3 alpha2A (h) (antagonist radioligand) 8.4 […]

TRPV4 channel = biological target: T1, TRPV4 channel (Homo sapiens, UniProt Q9HBA0); test: Ion channel profiling at Charles River: TRPV4; assay type: cell-based; conditions: expressed in CHO cells; read-out: ESTIMATED IC50
T1 construct: host or cells: CHO cells
Procedure: 1.4.3 Ion Channel Profiling at Charles River
Table S9. Compound 24 was tested against the following ion channels at Charles River Laboratories. […]
ScreenPatch Assay Kv1.3 potassium channel (human KCNA3 gene) expressed in CHO […]
(§1) FLIPR Assay expressed in HEK293 cells
GABAA α5/β3/γ2 ionotropic receptor (human GABRA5, GABRB3, >30 and GABRG2 genes, expressed in HEK293 cells […]
An increase in the number of colonies of at least two-fold over baseline (mean + SD of the vehicle control) and a dose response indicate a positive response. An […]
different from the vehicle control.
Where indicated, S9 fraction from the livers of Aroclor 1254-treated rats were included in the incubation at a final concentration of 4.5%. A NADPH-regenerating system was also included to ensure a steady supply of reducing equivalents.

[2] = biological target: T2, NET human norepinephrine transporter (Homo sapiens, UniProt P23975); test: NET functional antagonist uptake assay (Eurofins); assay type: cell-based
T2 construct: Eurofins 302000
Procedure: 1.4.2 Further functional off-target assays (Eurofins)
Table S8. Compound 24 was further tested in the following functional assays at Eurofins.
ASSAY NAME ESTIMATED IC50 [µM]
NET human norepinephrine transporter functional antagonist uptake >10 µM […]
as §1
GABAA α5/β3/γ2 ionotropic receptor (human GABRA5, GABRB3, >30
and GABRG2 genes, expressed in HEK293 cells

PA14 biofilm = test: Biofilm-eradication assay with tobramycin (Calgary biofilm device); assay type: cell-based, Pseudomonas aeruginosa
Procedure: MA, USA) instrument parameters: Spray voltage 3500 V, vaporizer temperature 370 °C, sheath gas pressure 35 psi, aux gas pressure 30 psi, capillary temperature 270 °C, collision pressure 1.5 mTorr, positive ionization mode. For AQ analyte reaction monitoring parameters please see Table S1.
Table S1. LC-ESI-MS/MS reaction monitoring parameters of AQ analytes in positive ionization mode. precursor product ion collision tube lens retention ion m/z m/z energy (V) offset (V) time (min)
1.2.4 Biofilm-formation assay
Biofilm formation was determined using a MBEC Assay® Biofilm Inoculator with 96-well base (Innvotech, Edmonton, CA). An overnight culture of PA14 was centrifuged (10 min, 5000 x g). The supernatant including extracellular polymers was removed and the pellet washed with 10 mL of LB medium. Centrifugation was repeated, the supernatant discarded, and the pellet resuspended in 5 mL of LB. OD was adjusted to 0.2. The bacteria were further diluted in LB medium, followed by addition of the target compound or DMSO control to give OD 0.1 and 1% DMSO. 150 µL were added to each well of the 96-well plate. The outer wells were used as blanks containing 150 µL of 1% DMSO in LB. Six replicates per sample were distributed evenly across the plate, with every row containing one replicate of each sample. The well plate was covered with the peg lid. One layer of parafilm was wrapped around the biofilm inoculator. The inoculator was incubated at 37 °C, static for 24 h with a beaker of H2O ensuring humidity. Alternatively, the plate was incubated using only LB for 8 h prior to addition of DMSO/24 to give 1% DMSO, followed by another 16 h incubation under the same […]
After 24 h, the plate was removed from the incubator and the peg lid was transferred to a fresh 96 well plate (Nunc U bottom, Thermo Fisher, Dreieich, Germany) containing the respective target […]
compound, 150 µL 1% DMSO in LB. The inoculator was wrapped with parafilm again and incubated for another 24 h. […]
Statistical outliers were determined using the Nalimov test, applying a 95% cut-off. […]

T1 sequence (Q9HBA0 whole entry): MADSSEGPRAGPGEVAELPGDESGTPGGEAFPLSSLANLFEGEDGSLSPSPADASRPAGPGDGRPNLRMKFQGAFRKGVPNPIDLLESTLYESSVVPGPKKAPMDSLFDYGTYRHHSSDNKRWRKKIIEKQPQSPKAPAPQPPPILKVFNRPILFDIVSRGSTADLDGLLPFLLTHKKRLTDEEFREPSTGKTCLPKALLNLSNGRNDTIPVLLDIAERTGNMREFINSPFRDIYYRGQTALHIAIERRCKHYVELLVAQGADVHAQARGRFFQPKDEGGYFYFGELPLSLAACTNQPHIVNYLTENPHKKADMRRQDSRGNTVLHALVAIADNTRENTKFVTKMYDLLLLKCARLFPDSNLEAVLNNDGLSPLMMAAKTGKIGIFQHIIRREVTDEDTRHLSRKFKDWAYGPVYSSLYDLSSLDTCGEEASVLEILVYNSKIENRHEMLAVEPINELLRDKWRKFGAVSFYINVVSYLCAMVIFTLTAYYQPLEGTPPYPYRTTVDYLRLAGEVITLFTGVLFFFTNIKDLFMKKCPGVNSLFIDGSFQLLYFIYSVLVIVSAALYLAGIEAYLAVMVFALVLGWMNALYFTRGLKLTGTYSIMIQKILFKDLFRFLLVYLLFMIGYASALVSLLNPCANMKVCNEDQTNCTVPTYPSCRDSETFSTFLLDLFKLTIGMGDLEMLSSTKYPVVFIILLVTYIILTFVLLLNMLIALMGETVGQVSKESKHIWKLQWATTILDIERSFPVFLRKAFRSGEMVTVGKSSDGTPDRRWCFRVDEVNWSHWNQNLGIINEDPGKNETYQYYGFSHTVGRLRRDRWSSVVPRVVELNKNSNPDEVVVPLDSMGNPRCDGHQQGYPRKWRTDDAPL
T2 sequence (P23975 whole entry): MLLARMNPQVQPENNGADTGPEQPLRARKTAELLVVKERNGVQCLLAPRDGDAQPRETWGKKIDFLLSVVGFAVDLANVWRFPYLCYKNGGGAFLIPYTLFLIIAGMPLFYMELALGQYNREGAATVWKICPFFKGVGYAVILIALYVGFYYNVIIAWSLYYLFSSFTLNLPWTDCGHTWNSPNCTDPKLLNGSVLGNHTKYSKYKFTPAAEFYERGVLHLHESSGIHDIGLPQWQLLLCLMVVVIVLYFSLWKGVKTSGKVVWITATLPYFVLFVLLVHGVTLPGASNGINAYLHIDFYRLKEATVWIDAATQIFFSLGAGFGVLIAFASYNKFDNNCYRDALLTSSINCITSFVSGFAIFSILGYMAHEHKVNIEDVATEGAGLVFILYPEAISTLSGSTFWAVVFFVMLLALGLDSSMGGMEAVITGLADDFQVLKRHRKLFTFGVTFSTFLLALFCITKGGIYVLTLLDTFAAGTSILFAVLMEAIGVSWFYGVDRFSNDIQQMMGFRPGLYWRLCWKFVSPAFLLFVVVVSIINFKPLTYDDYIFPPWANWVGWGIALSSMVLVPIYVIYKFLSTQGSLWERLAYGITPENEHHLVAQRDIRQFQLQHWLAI

In the case of CC(C)Oc1ccc(-c2ncc(CNc3ccnc(C(F)(F)F)c3)cn2)cc1Cl [Compound 24], the “effects on any target of SafetyScreen44” value [1] was ≤ 80%, the pIC50 (TRPV4 channel) was < 4.52 and the pIC50 [2] was < 5.00. The “Potentiation of tobramycin activity on biofilm” value (PA14 biofilm; 0.1 × 10^−6 M 24 plus tobramycin 0.5 µg mL^−1, p = 0.21) was “not sufficient” and the “CFU reduction of combination treatment compared to single treatment with the antibiotic” value (PA14 biofilm; 1 and 10 × 10^−6 M 24 plus tobramycin 0.5 µg mL^−1) was > 3 fold.

For NC[C@H]1O[C@H](O[C@H]2[C@H](O)[C@@H](O[C@H]3O[C@H](CO)[C@@H](O)[C@H](N)[C@H]3O)[C@H](N)C[C@@H]2N)[C@H](N)C[C@@H]1O [Tobramycin, tobramycin], the “Effect of tobramycin alone on untreated biofilms (CFU)” value (PA14 biofilm; tobramycin 0.5 µg mL^−1, 24 h treatment, p = 0.03) was “only minor effects”.
